Series [1] has as its system other Rho GTPases and Ras. In words: Example 7 effector pull-down in LDBM and HCB cells, other Rho GTPases and Ras. In kind it is cell-based, murine LDBM and human HCB cells. On the procedure: To exclude the inhibitory effect of CASIN on other Rac isoforms, Rho GTPases, and Ras, broader effector pull-down experiments are performed on these possible candidates with gradient doses of CASIN in LDBM and HCB cells as previously described. In addition, CASIN has been indicated as a noncovalent and reversible inhibitor in Xenopus egg extract. To confirm it, reversibility is monitored in this set of effector pull-down experiments. Four treatment groups are divided for both LDBM and HCB cells: (1) Serum starvation 20 h; (2) Serum starvation 20 h+growth factors stimulation; (3) Serum starvation 20 h+CASIN treatment (doses: 1, 2.5, 5, and 10 μM) 3 h+growth factor stimulation; (4) Serum starvation 20 h+CASIN treatment (doses: 1, 2.5, 5, and 10 μM) 3 h+wash the cells, and culture for another 3 h for recovery+growth factors stimulation. […] Bound proteins are analyzed by immunoblotting with respective antibodies (BD Biosciences). Furthermore, changes of downstream targets of Cdc42, Rac, and Rho under the four treatment groups are assessed. Phosphorylation status of PAK1, WASP (effectors of Cdc42), WAVE (effector of Rac), and ROCK (effector of Rho) are monitored by western blots using respective antibodies.

In series [2] the test system is leukemia initiating cells (LICs). In kind it is in vivo. The text has this:
(§1) Like normal HSCs, their malignant counterpart, leukemia initiating cells (LICs) reside in their BM niches that provide the structural and physiological conditions supporting their survival and growth. LICs are resistant to traditional chemotherapy by interacting with their BM microenvironment, which are the culprits of leukemia relapses after a period of remission induced by chemotherapy. Detachment of LICs from their niche by CASIN would be a valuable supplementary therapy to the traditional cancer therapies (e.g., chemotherapies). First of all, in vitro effects of CASIN were examined in adhesion, migration, and F-actin polymerization of LICs, each of which is independently important for the retention of LICs in BM niches. Retroviral transduction of an MLL-AF9 fusion cDNA together with N-Ras oncogene into normal human CD34^+cord blood cells led to the establishment of cultures of N-Ras-MA93 cells that can initiate acute myeloid leukemia in NOG mice. […] To address it, a human AML model was set up by transplanting N-RasMA93 cells into NOG mice intravenously.
C57BL/6, NOD/SCID, NOD/SCID-SGM3 and NOD/SCIDγC−/− (NOG) were in house bred in the animal barrier facility of Cincinnati Children's Hospital Medical Center (CCHMC) and used at the age of 6-8 weeks old. Cultured N-RasMA93 cells were injected into NOD/SCIDγC−/− mice by tail vein. […]

The subject of series [3] is N-RasMA93 cells. The series is described as follows: adhesion of N-RasMA93 leukemia cells via CH296. Type of series: cell-based, human. The following applies: in vitro. Here is the method:
FIG. 5C. Adhesion of leukemia cells via CH296 without or with CASIN pre-treatment at doses of 5 and 10 μM was examined.
as §1

The test system of series [4] is Swiss 3T3 fibroblasts. In words: actin cytoskeleton rearrangement in Swiss 3T3 fibroblasts. In kind it is cell-based, murine. The following applies: serum-starved Swiss 3T3 cells, in the presence of CASIN. The text has this: To investigate the Cdc42-dependent cytoskeleton rearrangement, Swiss 3T3 fibroblasts were used since it was abundantly elaborated in Swiss 3T3 fibroblats that bradykinin induces actin filopodia formation through activating Cdc42, whereas PDGF activates Rac1 and induces Rac-mediated membrane lamellipoidia, and LPA responsible for RhoA activation, eliciting RhoA-medicated formation of actin stress fibers and focal adhesion assembly (Ridley, A. J. et al. Cell 70, 401-410 (1992); Ridley, A. J. et al. Cell 70, 389-399 (1992); Kozma, R. et al. Mol Cell Biol 15, 1942-1952 (1995)).
[…] cells were seeded in Dulbecco's modified Eagle's medium (DMEM) supplemented with 10% calf serum on glass coverslips at a density of 10^5 cells per well in 8-well chambers. 24 hrs after cell seeding, cells were starved in serum-free DMEM for 24 h in the presence or absence of 5 μM or 10 μM CASIN for the last 2 hrs. cells then were stimulated with 5 ng/ml PDGF, 40 ng/ml LPA, or 100 ng/ml bradykinin, then fixed for immunofluorescence analysis. Immunostaining of F-actin with Rhodamine conjugated-phalloidin (Invitrogen) was carried out as described previously (Shutes, A., et al. J Biol Chem 282, 35666-35678 (2007)).

Series [5] deals with WASP. In words: phosphorylation of WASP in 32D progenitors. Type of series: cell-based, murine. The following applies: FIG. 7D. The text has this:
FIG. 7D. CASIN treatment in 32 progenitors led to dampened phosphorylation of WASP, […].

This note sets out measurements from US9433663B2, “Mobilization of hematopoietic stem cells” (Children's Hospital Medical Center, priority 2008, dated 2016).

Each structure is given as a SMILES string.

With `OCCNC1CCCc2c1[nH]c1ccc(-c3ccccc3)cc21` (centres unmarked) [CASIN], in series [1], the “activities of other Rho GTPases and Ras” value was “without affecting”. In addition, the “apoptosis or cell death of leukemia cells in vivo” value in series [2] (in vivo) is on record as “did not elicit significant apoptosis or cell death”. Besides, the “mobilization of LICs to the peripheral blood” value in series [2] (intravenous, by 20 min post injection) is given as “efficiently mobilized the LICs to the peripheral blood transiently”. Also, the “adhesion capacity of N-RasMA93 cells” value in series [3] is recorded as “not affected significantly”. Also, in series [4], the “LPA-induced actin stress fiber formation” value was “still induced their respective changes in actin reorganization”, the PDGF-induced lamellipodia formation entry was “still induced their respective changes in actin reorganization” and the bradykinin-induced filopodia formation result was “suppressed completely”. Further, the “phosphorylation of WASP” value in series [5] was “dampened”.
